For the experiment, the system named is NCI-H460 cells. Briefly: Antiproliferation assay (Alamar Blue), anoxia vs air. (Resazurin is reduced to fluorescent resorufin, in cell work by metabolically active cells.)
The mark [1] stands for this setting: Homo sapiens, NCI-H460, 2 h, read-out: IC50 H460 Air, air, 2 h exposure.
Where [2] appears, read: Homo sapiens, NCI-H460, 2 h, read-out: IC50 H460 Anoxia, anoxia, 2 h exposure.
Setting [3] is: read-out: IC50 H460 Air, air, 2 h exposure.
Where [4] appears, read: read-out: IC50 H460 Anoxia, anoxia, 2 h exposure.

Where two headings read alike, the source gives them in different places.

IC50 data for 53 compounds are collected here from patent US8507464B2, “Phosphoramidate alkylator prodrugs” (Threshold Pharmaceuticals, Inc., priority 2005, dated 2013).

By IC50 is commonly meant the point on the concentration scale where inhibition reaches its midpoint.

Regarding `Cn1c(COP(=O)(N2CC2)N2CC2)cnc1[N+](=O)[O-]` [Compound 28], the IC50 was 20 µM under setting [1] and 0.15 µM under setting [2].
For the compound `Cn1c(COc2ccc(COP3(=O)N(CCCl)CCCN3CCCl)cc2F)cnc1[N+](=O)[O-]` [Compound 33], the IC50 runs as follows: under setting [1], 46 µM; under setting [2], 8 µM.
Turning to `C[C@H](CCl)NP(=O)(N[C@H](C)CCl)OCc1ccc([N+](=O)[O-])s1` [Compound 39], the IC50 is, setting by setting: (read-out: IC50 H460 Air) 5 µM; (read-out: IC50 H460 Anoxia) 0.2 µM.
For the compound `C[C@@H](CCl)NP(=O)(N[C@@H](C)CCl)OCc1ccc([N+](=O)[O-])s1` [Compound 41], the IC50 (read-out: IC50 H460 Air) came to 7 µM.
Regarding `C[C@@H](CCl)NP(=O)(N[C@@H](C)CCl)OCc1ccc([N+](=O)[O-])o1` [Compound 42], the IC50 reads like this: under setting [1], 9 µM; under setting [2], 0.5 µM.
On to `CC(C)[C@H](CCl)NP(=O)(N[C@@H](CCl)C(C)C)OCc1ccc([N+](=O)[O-])o1` [Compound 43], for which the IC50 reads like this: under setting [1], 60 µM; under setting [2], 2 µM.
`CC(C)[C@H](CCl)NP(=O)(N[C@@H](CCl)C(C)C)OCc1cnc([N+](=O)[O-])n1C` [Compound 45]: the IC50 is > 100 µM under setting [1] and 6 µM under setting [2].
As to `CC(C)[C@@H](CCl)NP(=O)(N[C@H](CCl)C(C)C)OCc1cnc([N+](=O)[O-])n1C` [Compound 48], under setting [1], the IC50 was > 100 µM.
In the case of `CC(C)[C@H](CCl)NP(=O)(N[C@@H](CCl)C(C)C)OCc1ccc(OCc2cnc([N+](=O)[O-])n2C)c(F)c1` [Compound 49], where the note is “read-out: IC50 H460 Air”, the IC50 is > 100 µM.
As to `C[C@H](CCl)NP(=O)(N[C@H](C)CCl)OCc1ccc(-c2ccc([N+](=O)[O-])o2)cc1` [Compound 57], the IC50 (read-out: IC50 H460 Anoxia) is 14 µM.
Consider `O=[N+]([O-])c1ccc(C#Cc2ccc(COP(=O)(NCCBr)NCCBr)cc2)s1` [Compound 58], for which the IC50 runs as follows: under setting [1], 10 µM; under setting [2], 5 µM.
As for `CC(OP(=O)(NCCBr)NCCBr)c1ccc(-c2ccc([N+](=O)[O-])s2)cc1` (stereo not drawn) [Compound 59], the IC50 by setting is: under setting [1], 6 µM; under setting [2], 2 µM.
In the case of `COc1cc(C(C)OP(=O)(NCCBr)NCCBr)ccc1OCc1cnc([N+](=O)[O-])n1C` (stereo not drawn) [Compound 60], the IC50 reads like this: under setting [1], 15 µM; under setting [2], 15 µM.
`Cn1c([N+](=O)[O-])nc(Br)c1-c1ccc(COP(=O)(NCCBr)NCCBr)cc1` [Compound 65]: the IC50 by setting is: under setting [3], 75 µM; under setting [4], 25 µM.
With `Cn1c(COP(=O)(NCCOS(C)(=O)=O)NCCOS(C)(=O)=O)cnc1[N+](=O)[O-]` [Compound 67], the IC50 was > 100 µM under setting [1] and 48 µM under setting [2].
`Cn1c(COC(=O)NCCCOP(=O)(NCCBr)NCCBr)cnc1[N+](=O)[O-]` [Compound 68]: the IC50 under setting [1] is > 100 µM and the IC50 under setting [2] was ≥ 100 µM.
For `Cn1c(COC(=O)NCCCCOP(=O)(NCCBr)NCCBr)cnc1[N+](=O)[O-]` [Compound 69], the IC50 is > 100 µM under setting [1] and 71 µM under setting [2].
For the compound `CC(OP(=O)(NCCBr)NCCBr)c1ccc(OCc2ccc([N+](=O)[O-])o2)c([N+](=O)[O-])c1` (stereo not drawn) [Compound 71], the IC50 under setting [1] was found to be 0.1 µM and the IC50 under setting [2] is 0.1 µM.
For `C[C@H](CBr)NP(=O)(N[C@H](C)CBr)OCc1ccc([N+](=O)[O-])o1` [Compound 72], the IC50 worked out at 12 µM under setting [1] and 0.5 µM under setting [2].
Taken in the same sequence, the figures for `O=[N+]([O-])c1ccc(COP(=O)(NCCBr)NCCBr)cc1` [Compound 74] were > 100 µM and > 100 µM.
`O=[N+]([O-])c1ccc(COP(=O)(NCCBr)NCCBr)c([N+](=O)[O-])c1` [Compound 75]: the IC50 was 26 µM under setting [1] and 9 µM under setting [2].
For `O=[N+]([O-])c1ncc(COP(=O)(NCCCl)NCCCl)n1C1CCCCC1` [Compound 76], the IC50 reads like this: under setting [1], > 100 µM; under setting [2], 9 µM.
For `O=[N+]([O-])c1ncc(COP(=O)(NCCBr)NCCBr)n1C1CCCCC1` [Compound 77], the IC50 was determined as 5.5 µM under setting [1] and 1.6 µM under setting [2].
In the case of `O=[N+]([O-])c1ccc(COP(=O)(NCCBr)NCCBr)cc1F` [Compound 79], the IC50 under setting [1] is 3.5 µM and the IC50 under setting [2] turned out to be 3.5 µM.
`O=[N+]([O-])c1nccn1CCCOP(=O)(NCCBr)NCCBr` [Compound 80]: the IC50 was > 100 µM under setting [1] and > 100 µM under setting [2].
Regarding `CCCn1c(COP(=O)(NCCCl)NCCCl)cnc1[N+](=O)[O-]` [Compound 83], the IC50 under setting [1] was > 100 µM and the IC50 under setting [2] came out at 0.3 µM.
With `O=[N+]([O-])c1ccsc1COP(=O)(NCCBr)NCCBr` [Compound 86], the IC50 under setting [3] came out at 3 µM and the IC50 under setting [4] was 1.4 µM.
As to `CC(OP(=O)(NCCCl)NCCCl)c1ncc([N+](=O)[O-])n1C` (stereo not drawn) [Compound 87], the IC50 under setting [1] is > 100 µM and the IC50 under setting [2] amounted to 22 µM.
For the compound `CC(OP(=O)(NCCCl)NCCCl)c1ccc([N+](=O)[O-])s1` (stereo not drawn) [Compound 89], the IC50 reads like this: under setting [1], 3.7 µM; under setting [2], 0.33 µM.
Turning to `O=[N+]([O-])c1ncc(COP(=O)(NCCBr)NCCBr)n1CC(F)(F)F` [Compound 90], the IC50 under setting [1] stood at 3.4 µM and the IC50 under setting [2] came out at 0.01 µM.
`Cn1c(CSCCOP(=O)(NCCBr)NCCBr)cnc1[N+](=O)[O-]` [Compound 91]: under setting [1], the IC50 was > 100 µM.
Take `Cn1c(CSCCCCOP(=O)(NCCBr)NCCBr)cnc1[N+](=O)[O-]` [Compound 92]: the IC50 by setting is: under setting [1], > 100 µM; under setting [2], > 100 µM.
Turning to `CC(OP(=O)(N[C@H](C)CCl)N[C@H](C)CCl)c1ccc([N+](=O)[O-])s1` (stereo partly drawn) [Compound 93], the IC50 is, setting by setting: under setting [3], 3.8 µM; under setting [4], 0.1 µM.
Take `O=[N+]([O-])c1sc(COP(=O)(NCCBr)NCCBr)cc1Br` [Compound 94]: the half-inhibitory concentration (IC50) reads like this: under setting [1], 2 µM; under setting [2], 0.3 µM.
As for `O=[N+]([O-])c1sc(COP(=O)(NCCCl)NCCCl)cc1Br` [Compound 95], the IC50 under setting [1] worked out at 2.7 µM.
As for `N#Cc1cc(COP(=O)(NCCCl)NCCCl)sc1[N+](=O)[O-]` [Compound 96], the IC50 came to 0.1 µM under setting [3] and 0.1 µM under setting [4].
Turning to `CC(OP(=O)(NCCCl)NCCCl)c1ccc([N+](=O)[O-])o1` (stereo not drawn) [Compound 104], the IC50 runs as follows: under setting [1], 12 µM; under setting [2], 0.4 µM.
On the same counts, the results for `CC(OP(=O)(NCCBr)NCCBr)c1ccc([N+](=O)[O-])o1` (stereo not drawn) [Compound 105] are 1 µM and < 0.1 µM.
`O=[N+]([O-])c1ccc(COP(=O)(NCCOS(=O)(=O)c2ccc(Cl)cc2)NCCOS(=O)(=O)c2ccc(Cl)cc2)o1` [Compound 107]: the IC50 by setting is: (Homo sapiens, NCI-H460, 2 h, read-out: IC50 H460 Air) 2.8 µM; (Homo sapiens, NCI-H460, 2 h, read-out: IC50 H460 Anoxia) 0.06 µM.
On to `O=[N+]([O-])c1ccc(-c2ccc(OP3(=O)N(CCBr)CCN3CCBr)cc2)s1` [Compound 111], for which the IC50 under setting [1] was 100 µM and the IC50 under setting [2] was 50 µM.
Turning to `Cn1c(COC(=O)NC(C)(C)COP2(=O)N(CCBr)CCN2CCBr)cnc1[N+](=O)[O-]` [Compound 112], the IC50 is > 100 µM under setting [1] and 70 µM under setting [2].
Regarding `CC(C)(C#Cc1ccc([N+](=O)[O-])s1)COP(N)(=O)N(CCCl)CCCl` (stereo not drawn) [Compound 115], the IC50 by setting is: under setting [1], 5 µM; under setting [2], 0.5 µM.
Taken in the same sequence, the figures for `Cc1cc(C(C)OP(N)(=O)N(CCCl)CCCl)sc1[N+](=O)[O-]` (stereo not drawn) [Compound 116] were 15 µM and 0.5 µM.
For `CC(C)(C#Cc1ccc([N+](=O)[O-])cc1)OP(N)(=O)N(CCCl)CCCl` (stereo not drawn) [Compound 117], the IC50 is 70 µM under setting [1] and 8 µM under setting [2].
Turning to `O=[N+]([O-])c1ccc(COP(=O)(NCCCCCCCCNP(=O)(OCc2ccc([N+](=O)[O-])o2)N(CCCl)CCCl)N(CCCl)CCCl)o1` (stereo not drawn) [Compound 139], the IC50 runs as follows: under setting [1], 100 µM; under setting [2], 16 µM.
With `O=[N+]([O-])c1ccc(COP(=O)(NCCOCCOCCNP(=O)(OCc2ccc([N+](=O)[O-])o2)N(CCCl)CCCl)N(CCCl)CCCl)o1` (stereo not drawn) [Compound 140], the IC50 runs as follows: under setting [1], 65 µM; under setting [2], 5 µM.
Take `Cn1c([N+](=O)[O-])cnc1COc1ccc(COP(N)(=O)N(CCCl)CCCl)cc1` (stereo not drawn) [Compound 142]: the IC50 under setting [1] is > 100 µM and the IC50 under setting [2] is > 40 µM.
As to `O=[N+]([O-])c1ccc(COP(=O)(N(CCCl)CCCl)N(CCCl)CCCl)o1` [Compound 143], the IC50 stood at 3.5 µM under setting [1] and 4.5 µM under setting [2].
For the compound `Cn1c(COP(=O)(OCc2cnc([N+](=O)[O-])n2C)N(CCCl)CCCl)cnc1[N+](=O)[O-]` [Compound 145], the IC50 under setting [1] was > 100 µM and the IC50 under setting [2] is > 100 µM.
Regarding `Cn1c([N+](=O)[O-])cnc1/C=C/COP1(=O)N(CCCl)CCN1CCCl` [Compound 147], the IC50 is, setting by setting: under setting [1], > 100 µM; under setting [2], > 100 µM.
With `CC(=O)NP(=O)(OCc1cnc([N+](=O)[O-])n1C)N(CCCl)CCCl` (stereo not drawn) [Compound 149], the IC50 runs as follows: under setting [1], > 100 µM; under setting [2], 50 µM.
`CN(CCCl)P(=O)(OCc1ccc(OCc2cnc([N+](=O)[O-])n2C)c(F)c1)N(C)CCCl` [Compound 150]: under setting [1], the IC50 was 21 µM.
Consider `COc1cc2c(=O)n(CCN(C)P(=O)(OCc3ccc([N+](=O)[O-])o3)N(CCCl)CCCl)c3c4cc5c(cc4ncc3c2cc1OC)OCO5` (stereo not drawn) [Compound 154], for which the IC50 under setting [1] came to 2 µM and the IC50 under setting [2] was 0.9 µM.
